Test results taken from article PMC8273887 (Journal of Medicinal Chemistry, 2021).

Tests used:
[1] = Stability in simulated gastric fluid (SGF); assay type: in vitro ADME, porcine; conditions: simulated gastric fluid (SGF) with pepsin, pH 1.3, 15 μL of 1 mM peptide stock in 285 μL SGF, 37 °C, samples 0 min-24 h quenched with 0.2 M Na2CO3, RP-HPLC/LC-MS peak area as % of time 0, exponential one-phase decay fit, read-out: t1/2 in SGF
In short: (§1)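 Peptides incubated at 37 °C in SGF (pepsin, pH 1.3) or SIF (porcine pancreatin, pH 6.8), sampled from 0 min to 24 h. Remaining peptide quantified by RP-HPLC peak area as % of time 0, with t1/2 from one-phase exponential decay fit. Metabolites identified by LC-MS.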

[2] = Stability in simulated intestinal fluid (SIF); assay type: in vitro ADME; conditions: pig, simulated intestinal fluid (SIF) with porcine pancreatin, pH 6.8, 15 μL of 1 mM peptide stock in 285 μL SIF, 37 °C, samples 0 min-24 h quenched with 5% aqueous TFA, RP-HPLC/LC-MS peak area as % of time 0, exponential one-phase decay fit, read-out: t1/2 in SIF
In short: as §1

SH-SY5Y cells = assay: Antiapoptotic assay (etoposide-induced cell death, caspase-3/7 activity); assay type: cell-based, human; conditions: etoposide 10 μM and peptide 10 μM added at the same time, caspase-3/7 activity after 6 h, n ≥ 3 independent experiments
Protocol: (A) Cell death was induced with etoposide (10 μM), and cells were treated with 10 μM of TFF3. Etoposide and TFF3 were added at the same time. Caspase-3/7 activity was measured after 6 h. […] Z-DEVD-FMK (50 μM; caspase-3 inhibitor) was used as the positive control. E: etoposide, E + C3I: etoposide + caspase-3 inhibitor. One-way analysis of variance (ANOVA) followed by Dunnett correction was performed to assess differences between treated cells and etoposide only. *p < 0.05, **p < 0.01.
SH-SY5Y cells were seeded (13–15 × 10^3 cells/well) in 96-well microplates in DMEM with 10% (v/v) fetal calf serum (FCS; Gibco), 2 mM L-glutamine, and 100 units/mL penicillin/streptomycin. The media was replaced with low riboflavin, complete Ham’s F12 medium with 10% (v/v) fetal calf serum, 2 mM L-glutamine, and 100 units/mL penicillin/streptomycin before the live-cell imaging. Cells were treated with the etoposide or the caspase-3 inhibitor or TFF3(C^57Acm) or TFF3 homodimer in the presence of IncuCyte caspase-3/7 green apoptosis reagent. Data were acquired using an IncuCyte ZOOM instrument with standard scan type setting (4 images per well) every 2 h for 48 h.

CXCR4 = molecular target: T1, CXCR4 (Homo sapiens, UniProt P61073); assay: Inositol 1 phosphate (IP1) accumulation assay (HTRF) in COS-7 cells transfected with CXCR4; assay type: cell-based; conditions: COS-7 transiently co-transfected with CXCR4-eYFP and chimeric GαΔ6qi4myr; 10^-12 to 10^-5 M, 1 h, 37 °C; HTRF; n ≥ 2
T1 construct: expressed in transfected cells; host or cells: COS-7 (African green monkey), transient co-transfection with GαΔ6qi4myr
In short: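 COS-7 cells transiently co-transfected with CXCR4-eYFP and chimeric GαΔ6qi4myr were stimulated 1 h at 37 °C in HBSS with 20 mM LiCl; final ligand 10^–12 to 10^–5 M CXCL12, 1 or 10 μM TFF3 forms. IP1 measured by competitive HTRF (665/620 ratio), normalized to CXCL12 response.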

T1 sequence (P61073 whole entry): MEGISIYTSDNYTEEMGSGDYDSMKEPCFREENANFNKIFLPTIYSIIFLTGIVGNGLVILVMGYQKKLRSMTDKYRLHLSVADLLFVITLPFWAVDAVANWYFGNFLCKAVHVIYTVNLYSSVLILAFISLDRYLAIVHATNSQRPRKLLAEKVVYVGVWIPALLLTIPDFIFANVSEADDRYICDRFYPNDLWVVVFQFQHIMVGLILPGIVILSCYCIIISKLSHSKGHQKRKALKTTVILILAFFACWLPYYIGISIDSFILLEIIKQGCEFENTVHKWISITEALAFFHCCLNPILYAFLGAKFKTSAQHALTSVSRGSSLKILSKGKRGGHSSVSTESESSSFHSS

With `CC[C@H](C)[C@@H]1NC(=O)[C@H](CCCNC(=N)N)NC(=O)[C@H](CO)NC(=O)[C@H](CC(=O)O)NC(=O)[C@H](Cc2ccccc2)NC(=O)[C@@H]2CSSC[C@H](NC(=O)[C@H](CCC(N)=O)NC(=O)[C@H](CC(N)=O)NC(=O)[C@H](C)NC(=O)[C@H](CO)NC(=O)[C@H](CC(C)C)NC(=O)CNC(=O)[C@@H](NC(=O)[C@H](Cc3ccc(O)cc3)NC(=O)[C@H](CCC(=O)O)NC(=O)[C@@H](N)CCC(=O)O)C(C)C)C(=O)N[C@@H](C)C(=O)N[C@@H](C(C)C)C(=O)N3CCC[C@H]3C(=O)N[C@@H](C)C(=O)N[C@@H](CCCCN)C(=O)N[C@@H](CC(=O)O)C(=O)N[C@@H](CCCNC(=N)N)C(=O)N[C@@H](C(C)C)C(=O)N[C@@H](CC(=O)O)C(=O)N[C@H]3CSSC[C@H](NC(=O)CNC(=O)[C@H](CCCNC(=N)N)NC(=O)[C@H](CC(N)=O)NC(=O)[C@H](CC(N)=O)NC(=O)[C@H](CSSC[C@@H](C(=O)N[C@@H](Cc4ccccc4)C(=O)N[C@@H](CCCCN)C(=O)N4CCC[C@H]4C(=O)N[C@@H](CC(C)C)C(=O)N[C@@H](CCC(N)=O)C(=O)N[C@@H](CCC(=O)O)C(=O)N[C@@H](C)C(=O)N[C@@H](CCC(=O)O)C(=O)N[C@@H](CSCNC(C)=O)C(=O)N[C@H](C(=O)N[C@@H](Cc4ccccc4)C(=O)O)[C@@H](C)O)NC(=O)[C@H](Cc4c[nH]c5ccccc45)NC(=O)[C@@H]4CCCN4C(=O)[C@H](C(C)C)NC(=O)CNC(=O)[C@@H]4CCCN4C1=O)NC(=O)[C@H](CCC(=O)O)NC(=O)[C@H](CCCCN)NC(=O)[C@@H]1CCCN1C(=O)[C@H]([C@@H](C)O)NC(=O)[C@H](C(C)C)NC(=O)[C@H](Cc1c[nH]cn1)NC(=O)[C@@H]1CCCN1C(=O)[C@H](Cc1ccc(O)cc1)NC(=O)CNC3=O)C(=O)N2` [TFF3(C^57Acm)] as the compound, how does the half-life at 50 μM [1] read?
The half-life at 50 μM was less than 5 min.

What about the half-life at 50 μM [2] of the same compound?
The half-life at 50 μM was less than 5 min.

What about the “reduction of etoposide-induced cell death (caspase-3/7 active objects)” value (SH-SY5Y cells) of the same compound?
The value was “statistically significant (p < 0.05) reduction in cell death”.

And the “concentration up to which CXCR4 was not activated (agonism, IP1 accumulation)” value (CXCR4)?
The value was greater than 10 µM.
